Data reported in PubChem BioAssay AID2060499 (Molecular Pharmacology Branch, DTP, NCI, 2025).
pIC50: −log10 of the molar value.

Test system: 777334-354-R2-J4-PDC tumor spheroids with HUVEC/MSC, viability
Assay: Anticancer human tumor 777334-354-R2-J4-PDC patient-derived pancreatic adenocarcinoma cell line growth inhibition [GQUAD]
Conditions: for pIC50: curve of first compound; for viability, T/C: stronger effect = lower value
Procedure, shortened: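 Multi-cell-type spheroids of tumor cells with HUVEC and mesenchymal stem cells, treated with drug combinations. Concentrations descend in half-log steps from near clinical Cmax, or from 10 microM where Cmax is unknown; viability read-out.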

[1] = second compound 0.0316 µM, first compound 0.0316 µM
[2] = second compound 0.0316 µM, first compound 0.1 µM
[3] = second compound 0.0316 µM, first compound 0.316 µM
[4] = second compound 0.0316 µM, first compound 1 µM
[5] = second compound 0.0316 µM, first compound 3.16 µM
[6] = second compound 0.0316 µM, first compound 10 µM
[7] = second compound 0.1 µM, first compound 0.0316 µM
[8] = second compound 0.1 µM, first compound 0.1 µM
[9] = second compound 0.1 µM, first compound 0.316 µM
[10] = second compound 0.1 µM, first compound 1 µM
[11] = second compound 0.1 µM, first compound 3.16 µM
[12] = second compound 0.1 µM, first compound 10 µM
[13] = second compound 0.316 µM, first compound 0.0316 µM
[14] = second compound 0.316 µM, first compound 0.1 µM
[15] = second compound 0.316 µM, first compound 0.316 µM
[16] = second compound 0.316 µM, first compound 1 µM
[17] = second compound 0.316 µM, first compound 3.16 µM
[18] = second compound 0.316 µM, first compound 10 µM
[19] = second compound 1 µM, first compound 0.0316 µM
[20] = second compound 1 µM, first compound 0.1 µM
[21] = second compound 1 µM, first compound 0.316 µM
[22] = second compound 1 µM, first compound 1 µM
[23] = second compound 1 µM, first compound 3.16 µM
[24] = second compound 1 µM, first compound 10 µM
[25] = second compound 3.16 µM, first compound 0.0316 µM
[26] = second compound 3.16 µM, first compound 0.1 µM
[27] = second compound 3.16 µM, first compound 0.316 µM
[28] = second compound 3.16 µM, first compound 1 µM
[29] = second compound 3.16 µM, first compound 3.16 µM
[30] = second compound 3.16 µM, first compound 10 µM
[31] = second compound 10 µM, first compound 0.0316 µM
[32] = second compound 10 µM, first compound 0.1 µM
[33] = second compound 10 µM, first compound 0.316 µM
[34] = second compound 10 µM, first compound 1 µM
[35] = second compound 10 µM, first compound 3.16 µM
[36] = second compound 10 µM, first compound 10 µM
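Further: spheroids exposed to compounds for 7 days before readout.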

`C=CC(=O)N1CCN(c2nc(=O)n(-c3c(C)ccnc3C(C)C)c3nc(-c4c(O)cccc4F)c(F)cc23)C(C)C1` (stereo not drawn) + Cc1[nH]c2ccc(F)cc2c1-c1nc2c3cccnc3c3ncccc3c2[nH]1 was tested, and the pIC50 (second compound 0.0316 µM) was < 5.00, the pIC50 (second compound 0.1 µM) was < 5.00 and the pIC50 (second compound 0.316 µM) was < 5.00. For the same molecule, the pIC50 (second compound 1 µM) was < 5.00, the pIC50 (second compound 3.16 µM) was > 7.50 and the pIC50 (second compound 10 µM) was > 7.50. The viability, T/C [1] was 108%, the viability, T/C [2] was 86.6% and the viability, T/C [3] was 111%. It also gave a viability, T/C [4] of 95.7%, a viability, T/C [5] of 118% and a viability, T/C [6] of 114%. The viability, T/C [7] was 99.8%, the viability, T/C [8] was 89.5% and the viability, T/C [9] was 105%. The viability, T/C [10] was 91.3%, the viability, T/C [11] was 102% and the viability, T/C [12] was 120%. The viability, T/C [13] was 82.6%, the viability, T/C [14] was 91.8% and the viability, T/C [15] was 92%. For the same molecule, the viability, T/C [16] was 108%, the viability, T/C [17] was 110% and the viability, T/C [18] was 97.1%. For the same molecule, the viability, T/C [19] was 81.3%, the viability, T/C [20] was 79.8% and the viability, T/C [21] was 91.6%. It also gave a viability, T/C [22] of 91.5%, a viability, T/C [23] of 98.9% and a viability, T/C [24] of 94.3%. For the same molecule, the viability, T/C [25] was 34.3%, the viability, T/C [26] was 44.6% and the viability, T/C [27] was 40.6%. For the same molecule, the viability, T/C [28] was 41%, the viability, T/C [29] was 47% and the viability, T/C [30] was 40.4%. The viability, T/C [31] was 28.9%, the viability, T/C [32] was 31.5% and the viability, T/C [33] was 34.7%. For the same molecule, the viability, T/C [34] was 22.7%, the viability, T/C [35] was 22.9% and the viability, T/C [36] was 46.4%.
`CC(=O)O[C@H]1C(=O)[C@@]2(C)[C@H]([C@H](OC(=O)c3ccccc3)[C@]3(O)C[C@H](OC(=O)[C@H](O)[C@@H](NC(=O)c4ccccc4)c4ccccc4)C(C)=C1C3(C)C)[C@]1(OC(C)=O)CO[C@@H]1C[C@@H]2O` + Cc1[nH]c2ccc(F)cc2c1-c1nc2c3cccnc3c3ncccc3c2[nH]1 showed a pIC50 (second compound 0.0316 µM) of 6.54, a pIC50 (second compound 0.1 µM) of 6.52 and a pIC50 (second compound 0.316 µM) of 6.65. The pIC50 (second compound 1 µM) was 6.62, the pIC50 (second compound 3.16 µM) was > 7.50 and the pIC50 (second compound 10 µM) was > 7.50. The viability, T/C [1] was 97.1%, the viability, T/C [2] was 66% and the viability, T/C [3] was 49.7%. For the same molecule, the viability, T/C [4] was 41.1%, the viability, T/C [5] was 51.8% and the viability, T/C [6] was 43.3%. For the same molecule, the viability, T/C [7] was 94.9%, the viability, T/C [8] was 59.9% and the viability, T/C [9] was 48.4%. For the same molecule, the viability, T/C [10] was 46.4%, the viability, T/C [11] was 49.6% and the viability, T/C [12] was 47.6%. For the same molecule, the viability, T/C [13] was 81.4%, the viability, T/C [14] was 59.5% and the viability, T/C [15] was 45.6%. For the same molecule, the viability, T/C [16] was 45.2%, the viability, T/C [17] was 47.5% and the viability, T/C [18] was 44.1%. For the same molecule, the viability, T/C [19] was 70.9%, the viability, T/C [20] was 58.5% and the viability, T/C [21] was 44.2%. The viability, T/C [22] was 45.3%, the viability, T/C [23] was 44.6% and the viability, T/C [24] was 38.1%. For the same molecule, the viability, T/C [25] was 35.9%, the viability, T/C [26] was 28% and the viability, T/C [27] was 22.2%. For the same molecule, the viability, T/C [28] was 17.4%, the viability, T/C [29] was 17.8% and the viability, T/C [30] was 15%. The viability, T/C [31] was 30.7%, the viability, T/C [32] was 23% and the viability, T/C [33] was 19.6%. The viability, T/C [34] was 14%, the viability, T/C [35] was 15.3% and the viability, T/C [36] was 15.7%.
`CC[C@@]1(O)C(=O)OCc2c1cc1n(c2=O)Cc2cc3c(CN(C)C)c(O)ccc3nc2-1` + Cc1[nH]c2ccc(F)cc2c1-c1nc2c3cccnc3c3ncccc3c2[nH]1 gave a pIC50 (second compound 0.0316 µM) of 6.66, a pIC50 (second compound 0.1 µM) of 6.72 and a pIC50 (second compound 0.316 µM) of 6.70. For the same molecule, the pIC50 (second compound 1 µM) was 6.91, the pIC50 (second compound 3.16 µM) was > 9.00 and the pIC50 (second compound 10 µM) was > 9.00. The viability, T/C (second compound 0.0316 µM, first compound 0.000999 µM) was 103%, the viability, T/C (second compound 0.0316 µM, first compound 0.00316 µM) was 102% and the viability, T/C (second compound 0.0316 µM, first compound 0.00999 µM) was 104%. For the same molecule, the viability, T/C [1] was 82.3%, the viability, T/C (second compound 0.0316 µM, first compound 0.0999 µM) was 69.6% and the viability, T/C [3] was 41.3%. It also gave a viability, T/C (second compound 0.1 µM, first compound 0.000999 µM) of 100%, a viability, T/C (second compound 0.1 µM, first compound 0.00316 µM) of 97.1% and a viability, T/C (second compound 0.1 µM, first compound 0.00999 µM) of 111%. The viability, T/C [7] was 96%, the viability, T/C (second compound 0.1 µM, first compound 0.0999 µM) was 61% and the viability, T/C [9] was 41.5%. It also gave a viability, T/C (second compound 0.316 µM, first compound 0.000999 µM) of 89.5%, a viability, T/C (second compound 0.316 µM, first compound 0.00316 µM) of 95.5% and a viability, T/C (second compound 0.316 µM, first compound 0.00999 µM) of 96.4%. The viability, T/C [13] was 85.5%, the viability, T/C (second compound 0.316 µM, first compound 0.0999 µM) was 61.7% and the viability, T/C [15] was 42.4%. It also gave a viability, T/C (second compound 1 µM, first compound 0.000999 µM) of 79.3%, a viability, T/C (second compound 1 µM, first compound 0.00316 µM) of 83.6% and a viability, T/C (second compound 1 µM, first compound 0.00999 µM) of 85.9%. For the same molecule, the viability, T/C [19] was 83.6%, the viability, T/C (second compound 1 µM, first compound 0.0999 µM) was 53.9% and the viability, T/C [21] was 33%. The viability, T/C (second compound 3.16 µM, first compound 0.000999 µM) was 34.2%, the viability, T/C (second compound 3.16 µM, first compound 0.00316 µM) was 41.7% and the viability, T/C (second compound 3.16 µM, first compound 0.00999 µM) was 35.7%. It also gave a viability, T/C [25] of 28.4%, a viability, T/C (second compound 3.16 µM, first compound 0.0999 µM) of 15.9% and a viability, T/C [27] of 14.6%. For the same molecule, the viability, T/C (second compound 10 µM, first compound 0.000999 µM) was 28.4%, the viability, T/C (second compound 10 µM, first compound 0.00316 µM) was 38.5% and the viability, T/C (second compound 10 µM, first compound 0.00999 µM) was 30.7%. For the same molecule, the viability, T/C [31] was 20.2%, the viability, T/C (second compound 10 µM, first compound 0.0999 µM) was 13.3% and the viability, T/C [33] was 11.3%.
In the case of `O=c1[nH]cc(F)c(=O)[nH]1` + Cc1[nH]c2ccc(F)cc2c1-c1nc2c3cccnc3c3ncccc3c2[nH]1, the pIC50 (second compound 0.0316 µM) was < 5.00, the pIC50 (second compound 0.1 µM) was < 5.00 and the pIC50 (second compound 0.316 µM) was < 5.00. For the same molecule, the pIC50 (second compound 1 µM) was < 5.00, the pIC50 (second compound 3.16 µM) was > 7.50 and the pIC50 (second compound 10 µM) was > 7.50. For the same molecule, the viability, T/C [1] was 95.5%, the viability, T/C [2] was 93.3% and the viability, T/C [3] was 105%. The viability, T/C [4] was 82.5%, the viability, T/C [5] was 71.3% and the viability, T/C [6] was 61.5%. It also gave a viability, T/C [7] of 113%, a viability, T/C [8] of 100% and a viability, T/C [9] of 103%. The viability, T/C [10] was 72%, the viability, T/C [11] was 80.8% and the viability, T/C [12] was 61.7%. It also gave a viability, T/C [13] of 89.1%, a viability, T/C [14] of 103% and a viability, T/C [15] of 86.1%. It also gave a viability, T/C [16] of 76.8%, a viability, T/C [17] of 79.4% and a viability, T/C [18] of 67.5%. The viability, T/C [19] was 74.7%, the viability, T/C [20] was 89.5% and the viability, T/C [21] was 72.9%. For the same molecule, the viability, T/C [22] was 61.1%, the viability, T/C [23] was 68.7% and the viability, T/C [24] was 53.3%. It also gave a viability, T/C [25] of 44.6%, a viability, T/C [26] of 38.4% and a viability, T/C [27] of 31.2%. For the same molecule, the viability, T/C [28] was 28.8%, the viability, T/C [29] was 27.7% and the viability, T/C [30] was 25%. It also gave a viability, T/C [31] of 29.6%, a viability, T/C [32] of 29.1% and a viability, T/C [33] of 24.5%. For the same molecule, the viability, T/C [34] was 17.4%, the viability, T/C [35] was 16.4% and the viability, T/C [36] was 18.5%.
